Data on three compounds can be found in patent publication US11285169B2, “Methods for modulating chemotherapeutic cytotoxicity” (The United States of America, as represented by the …, priority 2013, dated 2022).

One series has as its system wild type Jurkat cells. The method, then: (§1) Wild type or CD47 null Jurkat T cells were plated at a density of 7×10^3/well in 96 well plates or 500 cells/well in 1536 well plates. Cells were treated with increasing amounts of doxorubicin. Cell viability was measured 48 or 72 hours after treatment by MTS reduction or using CellTiter-Glo® cell viability assay (Promega, Madison Wis.).
(§2) Wild type or CD47 null Jurkat cells were plated at a density of 7×10^3/well in 96 well plates. Cells were treated with 10 μg/ml 5-FU or […] camptothecin. Cell viability was measured 72 hours after treatment by MTS reduction.

Another series has as its system CD47 null Jurkat cells. The method, then:
as §1, §2

For another series, the system named is PINK and PARKIN. The series is described as follows: PINK and PARKIN gene expression by qRT-PCR in 4T1 cells. It counts as cell-based, mouse. Particulars: single agents. The procedure:
Autophagy can promote either survival or death of tissue. Selective mitochondrial turnover by mitophagy in tumor tissue can shift this pathway to a pro-death response (Gargini et al., Autophagy 7:466-476, 2011). To further understand the mechanism of mitophagy in breast cancer cells, 4T1 breast cancer cells were plated and treated with CD47 morpholino for 48 hours. […] Gene expression was determined by qRT-PCR.
In general terms: In qPCR the cycle at which signal appears reflects the starting amount.

Another series has as its system 4T1 breast tumors. The series is described as follows: 4T1 breast cancer cells in mammary fat pad of Balb/c mice: tumor growth, weight, lung metastasis. The format is in vivo, mouse. Particulars: for tumor weight at end of study: excised tumors; for tumor growth (tumor volume): weekly treatment, followed for 30 days, Dox i.v., CD47 M i.p. 48 hours before. The procedure: Balb/c mice were injected with 5×10^3 4 T1 breast cancer cells in the mammary fat pad. Tumors were left untreated, treated with 100 μl of 10 μg/mL doxorubicin (Dox) or with 10 μg/mL Dox in combination with 10 μM CD47 Morpholino (CD47 M). Doxorubicin treatment was given intravenously weekly. Treatment with CD47 M was given intraperitoneally 48 hours prior to doxorubicin injection.
4T1B breast cancer cells were implanted in the mammary fat-pad of Balb/C mice. The mice were treated weekly with saline, doxorubicin, CD47 M, or the combination of CD47 M with doxorubicin. Tumor growth was measured using calipers and was followed for 30 days. Treatment with CD47 morpholino was done two days prior to each treatment with doxorubicin for four weeks.
Tumors were excised at the end of the study and weighed. Tumors of mice treated with saline tripled in size (FIG. 1B).
The 4T1 breast cancer model is a well known model for metastasis of orthotopic breast tumors to lung and other organs. Mice were injected in the mammary fat pad with 4T1 cells. CD47 morpholino was administered intraperitoneally at a dose of 10 μM per mouse. Doxorubicin was adminstered intravenously at a dose of 10 mg/kg. The CD47 morpholino was administered weekly and the Doxorubicin administration was done weekly 48 hours after CD47 treatment. Five mice per group were treated. Lungs were exised, paraffin embedded, and hematoxylin and eosin stain was used to determine tissue structure.

The test system of a further series is Atg5 and Atg7. The experiment in a line: Autophagy gene expression in hearts of WT and CD47 null mice. Particulars: 24 hours of treatment. The format is in vivo, mouse.
A further series has as its system cardiac tissue. Particulars: mouse, in vivo.
For series [1], the system named is 4T1 breast cancer cells. The experiment in a line: Oxygen consumption rate and extracellular acidification rate, XF24 analyzer, 4T1 cells. It counts as cell-based, mouse. Particulars: for extracellular acidification rate (ECAR): 4T1B cells, same treatments as OCR; for oxygen consumption rate (OCR): 4T1 cells, CD47 morpholino 10 μM 48 hours, doxorubicin 10 μg/ml 1 hour. The method, then: (§3) 4T1 breast cancer cells or B16 melanoma cells (2×10^4 cells) were plated in the presence or absence of CD47 morpholino (10 μM). After a 48 hour period of incubation, cells were treated with doxorubicin for 1 hour (10 μg/ml). OCR and ECAR were measured using an XF24 analyzer (Seahorse Bioscience, N. Billerica, Mass.).
(§4) To start elucidating the molecular mechanism of breast cancer sensitization to anthracycline therapy with CD47 blockade oxygen consumption rate (OCR) was tested. OCR is a measurement of mitochondrial respiration and is extremely sensitive to changes in metabolic demand (Tao et al., Anal. Biochem. 381:43-52, 2008). Increased OCR is an indicator of mitochondrial dysfunction in transformed cells associated with tumor aggressiveness and resistance to therapy (Vaupel and Mayer, Int. J. Biochem. Cell Biol. 44:1477-1481, 2012). To measure OCR, 4T1 breast cancer cells or B16 melanoma cells were plated in 24-well plates using the XF24 flux analyzer (Seahorse Bioscience). Cells were exposed to known mitochondrial poisons (oligomicin, carbonilcyanide p-triflouromethoxy-phenylhydrazone FCCP, or […]) to determine basal and maximal OCR.
It is well known that cancer cells show increased glycolytic flux. […] The extracellular acidification rate (ECAR) was measured in 4T1B cells using the XF24 flux analyzer following the same treatments stated above.

For a further series, the system named is PINK. The experiment in a line: PINK immunostaining of tumor and heart sections. The format is in vivo, mouse. Particulars: heart.
Series [2] relates to 4T1 breast cancer cells. The series is described as follows: Cell viability by MTS reduction, 4T1 cells with or without CD47 morpholino. It counts as cell-based, mouse. Particulars: 10 μM CD47 morpholino 48 hours, doxorubicin 72 hours.
Procedure: Cells were plated in the presence or absence of 10 μM CD47 morpholino. After 48 hours, cells were treated with the indicated amounts of doxorubicin (10 μg/ml in FIGS. 7B and C). Cell viability was measured 72 hours after treatment by MTS reduction (FIGS. 7A and D) or 24 hours after treatment by lactate dehydrogenase (LDH) release (FIGS. 7B and C). * p<0.001. Control cells were untreated and Endoporter indicates treatment with vehicle without morpholino in FIGS. 7B and C.
4T1 breast cancer cells were treated with CD47 morpholino and treated with increasing concentrations of doxorubicin.
For a further series, the system named is B16 melanoma cells. The series is described as follows: Oxygen consumption rate, XF24 analyzer, B16 cells. The format is cell-based, mouse. Particulars: CD47 morpholino 10 μM 48 hours, doxorubicin 10 μg/ml 1 hour. The method, then:
as §3, §4

The next series relates to lung tissue. Particulars: mouse, in vivo.
Series [3] has as its system Glut-1 glucose transporter. The experiment in a line: Glut-1 expression in tumors by western blot. Particulars: western blot of excised tumors. It counts as in vivo, mouse. The procedure:
Glucose uptake was measured 24 hours after treatment by adding 2-NBDG, which is a fluorescently labeled deoxyglucose analog that is used primarily to directly monitor glucose uptake by living cells. This confirmed that the combination treatment modified glucose metabolism to sensitize cells to Dox treatment (FIG. 10). Furthermore, blockade of CD47 in combination with dox decreased expression of the Glut-1 glucose transporter in vivo (FIG. 11). Tumors of mice were exised and protein expression was determined by western blot hybridization. Expression of Glut-1 was not affected by treatment with saline, doxorubicin or CD47 morpholino (CD47M) alone. […] Glut-1 facilitates the transport of glucose in cells and is a poor prognostic factor in breast cancer and other cancer types.
For orientation: Immunoblotting shows a protein as a band on a membrane.

For the next series, the system named is CD47. The experiment in a line: Western blot of CD47 protein in tumors. Particulars: 48 hours after treatment. It counts as in vivo, mouse.

Procedure for Atg5 and Atg7: Samples were collected after 24 hours of treatment.
WT and CD47 null mice were treated with doxorubicin to determine effects on autophagy gene expression.
Source text for cardiac tissue: Hearts were collected from mice at the end of the tumor studies after four rounds of weekly doxorubicin treatment in the presence or absence of CD47 blockade. Sections were paraffin embedded and stained with H&E to determine tissue histology.
Tissue sections were subjected to TUNEL staining to detect cell death.

As to `CC[C@@]1(O)C(=O)OCc2c1cc1n(c2=O)Cc2cc3ccccc3nc2-1` [Camptothecin], the cytotoxicity with wild type Jurkat cells (human) amounted to 79%; in the series on CD47 null Jurkat cells (human), 56%.

Turning to `COc1cccc2c1C(=O)c1c(O)c3c(c(O)c1C2=O)C[C@@](O)(C(=O)CO)C[C@@H]3O[C@H]1C[C@H](N)[C@H](O)[C@H](C)O1` [Doxorubicin], in the series on PINK and PARKIN, the “PINK and PARKIN gene expression (in words)” value was “minimal effects”. Also, in the series on 4T1 breast tumors, the “tumor weight at end of study” value is given as “reduction in tumor weight”. In the series on 4T1 breast tumors, the “tumor growth (tumor volume)” value is “slightly delayed tumor growth”. The cell viability result is listed as “decreased viability” in the series on wild type Jurkat cells (WT Jurkat T cells, increasing concentration of doxorubicin, 72 hours); “dose-dependent protection” in the series with CD47 null Jurkat cells (CD47 deficient Jurkat T cells, increasing concentration of doxorubicin, 72 hours); “reduction in cell viability” with 4T1 breast cancer cells [2]. Further, the “Atg5 and Atg7 mRNA levels in hearts” value with Atg5 and Atg7 (CD47 null mice) was “markedly increased”. For the same compound, the “Atg5 mRNA level in hearts” value with Atg5 and Atg7 (WT mice) is listed as “slight reduction of Atg5”. Also, the “cardiac tissue histology (H&E)” value in the series with cardiac tissue was “characteristic degeneration of cardiac muscle”. The “cell death in cardiac tissue (TUNEL staining)” value in the series with cardiac tissue is on record as “high TUNEL positive staining”. For the same compound, the “extracellular acidification rate (ECAR)” value in the series with 4T1 breast cancer cells [1] was “high acidification in the media”. The “oxygen consumption rate (OCR)” value with 4T1 breast cancer cells [1] and in the series on B16 melanoma cells was “showed the same pattern” throughout. Also, the “PINK expression in hearts” value in the series on PINK is listed as “No change in PINK expression”. Moreover, the “lung tissue condition / fibrosis” value with lung tissue is “less fibrosis”. Moreover, in series [3], the “Glut-1 expression in tumors” value is reported as “not affected”.

“CD47 morpholino: antisense morpholino oligonucleotide complementary to human and murine CD47, CGTCACAGGCAGGACCCACTGCCCA (SEQ ID NO: 3) (all phosphorodiamidate morpholino (PMO))”: in the series with PINK and PARKIN, the “PINK and PARKIN gene expression (in words)” value was “minimal effects”. For the same compound, in the series with 4T1 breast tumors, the “tumor weight at end of study” value is given as “reduction in tumor weight” and the “tumor growth (tumor volume)” value is “slightly delayed tumor growth”. For the same compound, the “CD47 protein in tumors” value in the series on CD47 is recorded as “decrease in CD47 protein”. Besides, in the series with 4T1 breast cancer cells [1], the “extracellular acidification rate (ECAR)” value was “slight decrease in the ECAR” and the “oxygen consumption rate (OCR)” value is recorded as “caused a reduction in OCR”. Further, the “oxygen consumption rate (OCR)” value in the series with B16 melanoma cells is given as “caused a reduction in OCR”. In addition, the “Glut-1 expression in tumors” value in series [3] was “not affected”.
